Values quoted from earlier work in paper PMC3545186 (Biochemical Pharmacology, 2013).

Assays:
[1] = Asian breast cancer patient population; cited from earlier work
[2] = cited from earlier work

| Structure (SMILES) | exposure in individuals homozygous mutant for ABCB1 C1236T, G2677T/A and C3435T [1] | higher plasma concentrations in Abcb1a/1b knockout mice compared to wild type (WT) mice [2] |
| --- | --- | --- |
| COc1cccc2c1C(=O)c1c(O)c3c(c(O)c1C2=O)C[C@@](O)(C(=O)CO)C[C@@H]3O[C@H]1C[C@H](N)[C@H](O)[C@H](C)O1 [doxorubicin] | significantly higher exposure |  |
| COc1cc([C@@H]2c3cc4c(cc3[C@@H](O[C@@H]3O[C@@H]5CO[C@@H](C)O[C@H]5[C@H](O)[C@H]3O)[C@H]3COC(=O)[C@H]23)OCO4)cc(OC)c1O [etoposide] |  | 1.4 fold |
